Test results reported in ChEMBL document CHEMBL2439971, “Design, synthesis and antiproliferative evaluation of fluorenone analogs with DNA topoisomerase I inhibitory properties” (Bioorg Med Chem, 2013).
Activity calls are given as the source filed them. The calls are words filed in the database; no cut-off is given here.

Experiments:
Homo sapiens = species on record: Homo sapiens; experiment: Inhibition of telomerase (unknown origin) at 10 uM TRAP assay
PC-3 [1] = experiment: Cytotoxicity against human PC3 cells after 48 hrs by sulforhodamine B assay; assay type: functional, cell-based; settings: PC-3, 48 h
NCI-H460 = experiment: Cytotoxicity against human NCI-H460 cells at 10 uM after 48 hrs by sulforhodamine B assay relative to control; assay type: functional
IGROV-1 = experiment: Cytotoxicity against human IGROV1 cells at 10 uM after 48 hrs by sulforhodamine B assay relative to control; assay type: functional
786-0 = experiment: Cytotoxicity against human 786-0 cells at 10 uM after 48 hrs by sulforhodamine B assay relative to control; assay type: functional
MCF7 = experiment: Cytotoxicity against human MCF7 cells at 10 uM after 48 hrs by sulforhodamine B assay relative to control; assay type: functional
ACHN = experiment: Cytotoxicity against human ACHN cells at 10 uM after 48 hrs by sulforhodamine B assay relative to control; assay type: functional
HOP-62 = experiment: Cytotoxicity against human HOP62 cells at 10 uM after 48 hrs by sulforhodamine B assay relative to control; assay type: functional
RPMI-8226 = experiment: Cytotoxicity against human RPMI8226 cells at 10 uM after 48 hrs by sulforhodamine B assay relative to control; assay type: functional
NCI/ADR-RES = experiment: Cytotoxicity against human NCI/ADR-RES cells at 10 uM after 48 hrs by sulforhodamine B assay relative to control; assay type: functional
LOX IMVI = experiment: Cytotoxicity against human LOXIMVI cells at 10 uM after 48 hrs by sulforhodamine B assay relative to control; assay type: functional
TK-10 = experiment: Cytotoxicity against human TK10 cells at 10 uM after 48 hrs by sulforhodamine B assay relative to control; assay type: functional
DU-145 = experiment: Cytotoxicity against human DU145 cells at 10 uM after 48 hrs by sulforhodamine B assay relative to control; assay type: functional
[2] = Cytotoxicity against human Hs 578T cells at 10 uM after 48 hrs by sulforhodamine B assay relative to control; assay type: functional
SNB-75 = experiment: Cytotoxicity against human SNB75 cells at 10 uM after 48 hrs by sulforhodamine B assay relative to control; assay type: functional
U-251 = experiment: Cytotoxicity against human U251 cells at 10 uM after 48 hrs by sulforhodamine B assay relative to control; assay type: functional
HCT-116 = experiment: Cytotoxicity against human HCT116 cells at 10 uM after 48 hrs by sulforhodamine B assay relative to control; assay type: functional
PC-3 [3] = experiment: Cytotoxicity against human PC3 cells at 10 uM after 48 hrs by sulforhodamine B assay relative to control; assay type: functional
KM12 = experiment: Cytotoxicity against human KM12 cells at 10 uM after 48 hrs by sulforhodamine B assay relative to control; assay type: functional
RXF 393 = experiment: Cytotoxicity against human RXF393 cells at 10 uM after 48 hrs by sulforhodamine B assay relative to control; assay type: functional
OVCAR-3 = experiment: Cytotoxicity against human OVCAR3 cells at 10 uM after 48 hrs by sulforhodamine B assay relative to control; assay type: functional
K562 = experiment: Cytotoxicity against human K562 cells at 10 uM after 48 hrs by sulforhodamine B assay relative to control; assay type: functional
MDA-MB-468 = experiment: Cytotoxicity against human MDA-MB-468 cells at 10 uM after 48 hrs by sulforhodamine B assay relative to control; assay type: functional
OVCAR-4 = experiment: Cytotoxicity against human OVCAR4 cells at 10 uM after 48 hrs by sulforhodamine B assay relative to control; assay type: functional
SF-268 = experiment: Cytotoxicity against human SF268 cells at 10 uM after 48 hrs by sulforhodamine B assay relative to control; assay type: functional
UACC-257 = experiment: Cytotoxicity against human UACC257 cells at 10 uM after 48 hrs by sulforhodamine B assay relative to control; assay type: functional
COLO 205 = experiment: Cytotoxicity against human COLO205 cells at 10 uM after 48 hrs by sulforhodamine B assay relative to control; assay type: functional
BT-549 = experiment: Cytotoxicity against human BT549 cells at 10 uM after 48 hrs by sulforhodamine B assay relative to control; assay type: functional
HT-29 = experiment: Cytotoxicity against human HT-29 cells at 10 uM after 48 hrs by sulforhodamine B assay relative to control; assay type: functional
SF-539 = experiment: Cytotoxicity against human SF539 cells at 10 uM after 48 hrs by sulforhodamine B assay relative to control; assay type: functional
SR = experiment: Cytotoxicity against human SR cells at 10 uM after 48 hrs by sulforhodamine B assay relative to control; assay type: functional
MDA-MB-231 = experiment: Cytotoxicity against human MDA-MB-231 cells at 10 uM after 48 hrs by sulforhodamine B assay relative to control; assay type: functional
SK-MEL-28 = experiment: Cytotoxicity against human SK-MEL-28 cells at 10 uM after 48 hrs by sulforhodamine B assay relative to control; assay type: functional
[4] = Cytotoxicity against human EKVX cells at 10 uM after 48 hrs by sulforhodamine B assay relative to control; assay type: functional
HL-60(TB) = experiment: Cytotoxicity against human HL-60(TB) cells at 10 uM after 48 hrs by sulforhodamine B assay relative to control; assay type: functional
SK-MEL-2 = experiment: Cytotoxicity against human SK-MEL-2 cells at 10 uM after 48 hrs by sulforhodamine B assay relative to control; assay type: functional
T47D = experiment: Cytotoxicity against human T47D cells at 10 uM after 48 hrs by sulforhodamine B assay relative to control; assay type: functional
A549 = experiment: Cytotoxicity against human A549 cells at 10 uM after 48 hrs by sulforhodamine B assay relative to control; assay type: functional
NCI-H522 = experiment: Cytotoxicity against human NCI-H522 cells at 10 uM after 48 hrs by sulforhodamine B assay relative to control; assay type: functional
CCRF-CEM = experiment: Cytotoxicity against human CCRF-CEM cells at 10 uM after 48 hrs by sulforhodamine B assay relative to control; assay type: functional
M14 = experiment: Cytotoxicity against human M14 cells at 10 uM after 48 hrs by sulforhodamine B assay relative to control; assay type: functional
OVCAR-5 = experiment: Cytotoxicity against human OVCAR5 cells at 10 uM after 48 hrs by sulforhodamine B assay relative to control; assay type: functional
NCI-H23 = experiment: Cytotoxicity against human NCI-H23 cells at 10 uM after 48 hrs by sulforhodamine B assay relative to control; assay type: functional
NCI-H226 = experiment: Cytotoxicity against human NCI-H226 cells at 10 uM after 48 hrs by sulforhodamine B assay relative to control; assay type: functional
MOLT-4 = experiment: Cytotoxicity against human MOLT4 cells at 10 uM after 48 hrs by sulforhodamine B assay relative to control; assay type: functional
OVCAR-8 = experiment: Cytotoxicity against human OVCAR8 cells at 10 uM after 48 hrs by sulforhodamine B assay relative to control; assay type: functional
UO-31 = experiment: Cytotoxicity against human UO31 cells at 10 uM after 48 hrs by sulforhodamine B assay relative to control; assay type: functional
HCT-15 = experiment: Cytotoxicity against human HCT15 cells at 10 uM after 48 hrs by sulforhodamine B assay relative to control; assay type: functional
SNB-19 = experiment: Cytotoxicity against human SNB19 cells at 10 uM after 48 hrs by sulforhodamine B assay relative to control; assay type: functional
SN12C = experiment: Cytotoxicity against human SN12C cells at 10 uM after 48 hrs by sulforhodamine B assay relative to control; assay type: functional
Malme-3M = experiment: Cytotoxicity against human MALME-3M cells at 10 uM after 48 hrs by sulforhodamine B assay relative to control; assay type: functional
SK-MEL-5 = experiment: Cytotoxicity against human SK-MEL-5 cells at 10 uM after 48 hrs by sulforhodamine B assay relative to control; assay type: functional
HCC 2998 = experiment: Cytotoxicity against human HCC2998 cells at 10 uM after 48 hrs by sulforhodamine B assay relative to control; assay type: functional
UACC-62 = experiment: Cytotoxicity against human UACC62 cells at 10 uM after 48 hrs by sulforhodamine B assay relative to control; assay type: functional
SW-620 = experiment: Cytotoxicity against human SW620 cells at 10 uM after 48 hrs by sulforhodamine B assay relative to control; assay type: functional

CCCCNCCC(=O)Nc1ccc2c(c1)C(=O)c1cc(NC(=O)CCNCCCC)ccc1-2
inhibition (Homo sapiens): inactive | IC50 (PC-3 [1]): 26.9 µM

O=C(CCN1CCCC1)Nc1ccc2c(c1)C(=O)c1cc(NC(=O)CCN3CCCC3)ccc1-2
inhibition (Homo sapiens): inactive | IC50 (PC-3 [1]): 6.06 µM

O=C(CN1CCCCC1)Nc1ccc2c(c1)C(=O)c1cc(NC(=O)CN3CCCCC3)ccc1-2
inhibition (Homo sapiens): inactive | IC50 (PC-3 [1]): > 30 µM

O=C(CCCl)Nc1ccc2c(c1)C(=O)c1cc(NC(=O)CCCl)ccc1-2
inhibition (Homo sapiens): inactive | IC50 (PC-3 [1]): > 30 µM

O=C(CSCCO)Nc1ccc2c(c1)C(=O)c1cc(NC(=O)CSCCO)ccc1-2
inhibition (Homo sapiens): inactive | IC50 (PC-3 [1]): > 30 µM

CC(C)CNCC(=O)Nc1ccc2c(c1)C(=O)c1cc(NC(=O)CNCC(C)C)ccc1-2
inhibition (Homo sapiens): inactive | IC50 (PC-3 [1]): > 30 µM

CC(C)SCC(=O)Nc1ccc2c(c1)C(=O)c1cc(NC(=O)CSC(C)C)ccc1-2
inhibition (Homo sapiens): inactive | IC50 (PC-3 [1]): > 30 µM

O=C(CN1CCOCC1)Nc1ccc2c(c1)C(=O)c1cc(NC(=O)CN3CCOCC3)ccc1-2
inhibition (Homo sapiens): inactive | IC50 (PC-3 [1]): > 30 µM

CC(C)NCCC(=O)Nc1ccc2c(c1)C(=O)c1cc(NC(=O)CCNC(C)C)ccc1-2
inhibition (Homo sapiens): inactive | IC50 (PC-3 [1]): 10 µM

CC(C)NCC(=O)Nc1ccc2c(c1)C(=O)c1cc(NC(=O)CNC(C)C)ccc1-2
inhibition (Homo sapiens): inactive | IC50 (PC-3 [1]): 6.19 µM

CCSCC(=O)Nc1ccc2c(c1)C(=O)c1cc(NC(=O)CSCC)ccc1-2
inhibition (Homo sapiens): inactive | IC50 (PC-3 [1]): > 30 µM

CCCNCCC(=O)Nc1ccc2c(c1)C(=O)c1cc(NC(=O)CCNCCC)ccc1-2
inhibition (Homo sapiens): inactive | IC50 (PC-3 [1]): 20.8 µM

O=C1c2cc([N+](=O)[O-])ccc2-c2ccc([N+](=O)[O-])cc21
inhibition (Homo sapiens): inactive | IC50 (PC-3 [1]): > 30 µM

CCCSCCC(=O)Nc1ccc2c(c1)C(=O)c1cc(NC(=O)CCSCCC)ccc1-2
inhibition (Homo sapiens): inactive | IC50 (PC-3 [1]): > 30 µM

Nc1ccc2c(c1)C(=O)c1cc(N)ccc1-2
inhibition (Homo sapiens): inactive | IC50 (PC-3 [1]): > 30 µM

CN1CCN(CCC(=O)Nc2ccc3c(c2)C(=O)c2cc(NC(=O)CCN4CCN(C)CC4)ccc2-3)CC1
Activity (NCI-H460): 107.13% | Activity (IGROV-1): 102.45% | Activity (786-0): 100.57% | Activity (MCF7): 95.72% | Activity (ACHN): 100.97% | Activity (HOP-62): 109.22% | Activity (RPMI-8226): 106.48% | Activity (NCI/ADR-RES): 103.89% | Activity (LOX IMVI): 96.43% | Activity (TK-10): 99.67% | Activity (DU-145): 112.6% | Activity [2]: 102.5% | Activity (SNB-75): 77.89% | Activity (U-251): 100.29% | Activity (HCT-116): 100.16% | Activity (PC-3 [3]): 104.35% | Activity (KM12): 111.12% | Activity (RXF 393): 97.03% | Activity (OVCAR-3): 116.35% | Activity (K562): 99.19% | Activity (MDA-MB-468): 88.91% | Activity (OVCAR-4): 99.91% | Activity (SF-268): 109.98% | Activity (UACC-257): 103.02% | Activity (COLO 205): 108.32% | Activity (BT-549): 107.82% | Activity (HT-29): 101.23% | Activity (SF-539): 111.08% | Activity (SR): 92.06% | Activity (MDA-MB-231): 115.67% | Activity (SK-MEL-28): 96.67% | inhibition (Homo sapiens): inactive | Activity [4]: 111.18% | Activity (HL-60(TB)): 103.58% | Activity (SK-MEL-2): 109.38% | Activity (T47D): 102.07% | Activity (A549): 106.9% | Activity (NCI-H522): 86.63% | Activity (CCRF-CEM): 97.76% | Activity (M14): 105.74% | Activity (OVCAR-5): 104.62% | Activity (NCI-H23): 96.83% | Activity (NCI-H226): 98.16% | Activity (MOLT-4): 94.59% | Activity (OVCAR-8): 101.48% | Activity (UO-31): 89.26% | Activity (HCT-15): 101.35% | Activity (SNB-19): 105.99% | Activity (SN12C): 102.94% | Activity (Malme-3M): 98.05% | IC50 (PC-3 [1]): > 30 µM | Activity (SK-MEL-5): 107.35% | Activity (HCC 2998): 99.57% | Activity (UACC-62): 104.21% | Activity (SW-620): 105.36%

CC(C)SCCC(=O)Nc1ccc2c(c1)C(=O)c1cc(NC(=O)CCSC(C)C)ccc1-2
inhibition (Homo sapiens): inactive | IC50 (PC-3 [1]): > 30 µM

O=C(CCNCCO)Nc1ccc2c(c1)C(=O)c1cc(NC(=O)CCNCCO)ccc1-2
inhibition (Homo sapiens): inactive | IC50 (PC-3 [1]): 19.2 µM

O=C(CCl)Nc1ccc2c(c1)C(=O)c1cc(NC(=O)CCl)ccc1-2
inhibition (Homo sapiens): inactive | IC50 (PC-3 [1]): 0.55 µM

O=C(CCN1CCCCC1)Nc1ccc2c(c1)C(=O)c1cc(NC(=O)CCN3CCCCC3)ccc1-2
inhibition (Homo sapiens): inactive | IC50 (PC-3 [1]): 6.26 µM

O=C(CNCCO)Nc1ccc2c(c1)C(=O)c1cc(NC(=O)CNCCO)ccc1-2
inhibition (Homo sapiens): inactive | IC50 (PC-3 [1]): > 30 µM
